This note sets out measurements from US6080739A (priority 1996, dated 2000).

Like-named read-outs stand apart in the source and are kept apart here.

For test [1], the system named is MCF7-ADR.
The next test deals with MCF-7. The test can be described thus: cells. Format: cell-based. The settings on record: Homo sapiens, MCF7, read-out: IC50 MCF-7.
The test system of test [2] is MCF7-ADR. The test can be described thus: cells. The settings on record: Homo sapiens, NCI/ADR-RES, read-out: IC50 MCF7-ADR.

In the case of `COc1cc2c(c(OC)c1OC)-c1ccc(OC)c(=O)cc1[C@@H](NC(C)=O)CC2` [Colchicine], the MCF7-ADR/MCF7 in the test on MCF7-ADR [1] (ratio of IC50 resistant to normal cells) is recorded as 6,600.

By IC50 is commonly meant the concentration at which inhibition is half-maximal. On to `COc1cc2c(c(OC)c1OC)-c1ccc(SC)c(=O)cc1C1=Nc3cc(C(C)(C)C)cc(C(C)(C)C)c3OC1C2` (stereo not shown) [Compound IIa], for which the IC50 in the test on MCF-7 was 17 nM. For `COc1cc2c(c(OC)c1OC)-c1ccc(SC)c(=O)cc1C(=O)CC2` [Compound Ia, Thiocolchicone], the IC50 with MCF-7 amounted to 6.2 nM.

With `COc1cc2c(c(OC)c1OC)-c1ccc(OC)c(=O)cc1C(=O)CC2` [Compound Ib, Colchicone], in the test with MCF-7, the concentration for half-maximal inhibition (IC50) came to 23 nM. For the compound `CC(=O)O[C@H]1C(=O)[C@@]2(C)[C@H]([C@H](OC(=O)c3ccccc3)[C@]3(O)C[C@H](OC(=O)[C@H](O)[C@@H](NC(=O)c4ccccc4)c4ccccc4)C(C)=C1C3(C)C)[C@]1(OC(C)=O)CO[C@@H]1C[C@@H]2O` [Taxol], in the test with MCF7-ADR [1] (human, mcf7-adr / mcf7 cells), the MCF7-ADR/MCF7 is given as 1,043. Moreover, the IC50 with MCF-7 was found to be 2.3 nM; in the test with MCF7-ADR [2], 2400 nM.
